Results as given in PubChem BioAssay AID248 (DTP/NCI, 2004).
Values joined by “and” are separate entries in the source; they are usually repeats but may differ in a detail not shown here. Equal values may be shown once. Inconclusive results and toxic doses are left out. No stated cut-off is given here; in the data, active means T/C of 150% or more; inactive means T/C below 125%.

System: L1210 leukemia ip in BDF1 mice, survival T/C
Assay: NCI In Vivo Anticancer Drug Screen. Data for tumor model L1210 Leukemia (intraperitoneal) in B6D2F1 (BDF1) mice
Settings: endpoint: mean survival time, higher = longer survival
Method in brief: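 Read-out is survival time, reported as the treated-group measurement over the vehicle-control measurement.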

[1] = dose: 100.0 mg/kg/injection, schedule: Q01DX001 (ip), vehicle: saline with Tween-80
[2] = dose: 200.0 mg/kg/injection, schedule: Q01DX001 (ip), vehicle: saline with Tween-80
[3] = dose: 400.0 mg/kg/injection, schedule: Q01DX001 (ip), vehicle: saline with Tween-80
[4] = dose: 100.0 mg/kg/injection, schedule: Q04DX002 (ip), vehicle: Klucel (hydroxypropylcellulose) (HPC)
[5] = dose: 200.0 mg/kg/injection, schedule: Q04DX002 (ip), vehicle: Klucel (hydroxypropylcellulose) (HPC)
[6] = dose: 400.0 mg/kg/injection, schedule: Q04DX002 (ip), vehicle: Klucel (hydroxypropylcellulose) (HPC)
[7] = dose: 100.0 mg/kg/injection, schedule: Q01DX009 (ip), vehicle: Klucel (hydroxypropylcellulose) (HPC)
[8] = dose: 200.0 mg/kg/injection, schedule: Q01DX009 (ip), vehicle: Klucel (hydroxypropylcellulose) (HPC)
[9] = dose: 400.0 mg/kg/injection, schedule: Q01DX009 (ip), vehicle: Klucel (hydroxypropylcellulose) (HPC)
[10] = dose: 100.0 mg/kg/injection, schedule: Q01DX009 (ip), vehicle: saline
[11] = dose: 200.0 mg/kg/injection, schedule: Q01DX009 (ip), vehicle: saline

Measured: T/C

CCCCn1cnc2c(=O)[nH]cnc21
inactive: dose: 66.12 mg/kg/injection, schedule: Q01DX Z (ip), vehicle: carboxymethylcellulose (CMC) 93 % of control | dose: 132.25 mg/kg/injection, schedule: Q01DX Z (ip), vehicle: carboxymethylcellulose (CMC) 94 % of control | dose: 132.25 mg/kg/injection, schedule: Q01DX Z (oral), vehicle: carboxymethylcellulose (CMC) 100 % of control | dose: 264.5 mg/kg/injection, schedule: Q01DX Z (ip), vehicle: carboxymethylcellulose (CMC) 90 % of control | dose: 264.5 mg/kg/injection, schedule: Q01DX Z (oral), vehicle: carboxymethylcellulose (CMC) 96 % of control | dose: 529.0 mg/kg/injection, schedule: Q01DX Z (oral), vehicle: carboxymethylcellulose (CMC) 94 % of control

O=C1CCc2cccc(O)c2N1
inactive: dose: 100.0 mg/kg/injection, schedule: Q01DX001 (ip), vehicle: saline 103 % of control | dose: 200.0 mg/kg/injection, schedule: Q01DX001 (ip), vehicle: saline 103 % of control

CC(=O)OCCC(COC(C)=O)n1ccc(=O)[nH]c1=O (centres undefined)
inactive: dose: 100.0 mg/kg/injection, schedule: Q04DX002 (ip), vehicle: saline with Tween-80 91 % of control | dose: 200.0 mg/kg/injection, schedule: Q04DX002 (ip), vehicle: saline with Tween-80 105 % of control | dose: 400.0 mg/kg/injection, schedule: Q04DX002 (ip), vehicle: saline with Tween-80 102 % of control

COc1cc(C(=O)O)c(Br)c(OC)c1OC
inactive: [1] 103 % of control | [2] 101 % of control | [3] 114 % of control

COc1ccccc1NC(=O)c1ccco1
inactive: dose: 12.5 mg/kg/injection, schedule: Q04DX002 (ip), vehicle: Klucel (hydroxypropylcellulose) (HPC) 102 % of control | dose: 25.0 mg/kg/injection, schedule: Q04DX002 (ip), vehicle: Klucel (hydroxypropylcellulose) (HPC) 102 % of control | dose: 50.0 mg/kg/injection, schedule: Q04DX002 (ip), vehicle: Klucel (hydroxypropylcellulose) (HPC) 97 % of control | [4] 95 % of control | [5] 106 % of control | [6] 103 % of control

CNC(C)C1CCC2C3CC=C4CC(O)CCC4(C)C3CCC12C (centres undefined)
inactive: dose: 100.0 mg/kg/injection, schedule: Q01DX001 (sc), vehicle: steriod suspending solution 104 % of control | dose: 200.0 mg/kg/injection, schedule: Q01DX001 (sc), vehicle: steriod suspending solution 87 % of control | dose: 400.0 mg/kg/injection, schedule: Q01DX001 (sc), vehicle: steriod suspending solution 94 % of control

NC(=O)NC(=O)CC1NC(=O)NC1=O (centres undefined)
inactive: dose: 100.0 mg/kg/injection, schedule: Q04DX002 (ip), vehicle: saline 103 % of control | dose: 200.0 mg/kg/injection, schedule: Q04DX002 (ip), vehicle: saline 106 % of control | dose: 400.0 mg/kg/injection, schedule: Q04DX002 (ip), vehicle: saline 87 % of control

Cc1cccc(NC(=O)Oc2ccc3c(C)cc(=O)oc3c2)c1
inactive: [7] 110 % of control | [4] 93 % of control | [8] 98 % of control | [5] 96 % of control | [9] 94 % of control | [6] 93 % of control

CC(C)N(/N=N/c1[nH]ncc1C(N)=O)C(C)C
inactive: [1] 104 % of control | dose: 100.0 mg/kg/injection, schedule: Q01DX009 (ip), vehicle: saline with Tween-80 108 % of control | [2] 104 % of control | dose: 200.0 mg/kg/injection, schedule: Q01DX009 (ip), vehicle: saline with Tween-80 98 % of control | [3] 93 % of control | dose: 400.0 mg/kg/injection, schedule: Q01DX009 (ip), vehicle: saline with Tween-80 95 % of control

CC(C)(CNC1=NCCO1)NC1=NCCO1
inactive: dose: 50.0 mg/kg/injection, schedule: Q01DX009 (ip), vehicle: saline 105 % of control | [10] 107 % of control | [11] 103 % of control

Cc1ccc(S(=O)(=O)OCCOc2ccc(C(C)(C)CC(C)(C)C)cc2)cc1
inactive: [7] 100 % of control | [8] 101 % of control | [9] 100 % of control

COc1cccc(C(=O)O)c1[N+](=O)[O-]
inactive: dose: 50.0 mg/kg/injection, schedule: Q01DX001 (ip), vehicle: other 103 % of control | dose: 100.0 mg/kg/injection, schedule: Q01DX001 (ip), vehicle: other 97 % of control | [4] 106 % of control | dose: 200.0 mg/kg/injection, schedule: Q01DX001 (ip), vehicle: other 115 % of control | [5] 95 % of control | dose: 400.0 mg/kg/injection, schedule: Q01DX001 (ip), vehicle: other 97 % of control | [6] 88 % of control

CC1=COC(C)(C=O)CC1 (centres undefined)
inactive: dose: 222.0 mg/kg/injection, schedule: Q01DX Z (ip), vehicle: methylcellulose (MC) 94 % of control | dose: 333.0 mg/kg/injection, schedule: Q01DX Z (ip), vehicle: methylcellulose (MC) 98 % of control | dose: 500.0 mg/kg/injection, schedule: Q01DX Z (ip), vehicle: methylcellulose (MC) 88 % of control

S=C1NC(c2ccco2)N2C(=S)NC(c3ccco3)N12 (centres undefined)
inactive: dose: 100.0 mg/kg/injection, schedule: Q01DX009 (ip), vehicle: gum acacia 90 % of control | dose: 100.0 mg/kg/injection, schedule: Q04DX003 (ip), vehicle: gum acacia 97 % of control | dose: 200.0 mg/kg/injection, schedule: Q01DX009 (ip), vehicle: gum acacia 95 % of control | dose: 200.0 mg/kg/injection, schedule: Q04DX003 (ip), vehicle: gum acacia 103 % of control | dose: 400.0 mg/kg/injection, schedule: Q01DX009 (ip), vehicle: gum acacia 95 % of control | dose: 400.0 mg/kg/injection, schedule: Q04DX003 (ip), vehicle: gum acacia 98 % of control

O=S(=O)(N/C(=C(\NS(=O)(=O)c1ccccc1)c1ccccc1)c1ccccc1)c1ccccc1
inactive: dose: 100.0 mg/kg/injection, schedule: Q04DX003 (ip), vehicle: Klucel (hydroxypropylcellulose) (HPC) 97 % of control | dose: 200.0 mg/kg/injection, schedule: Q04DX003 (ip), vehicle: Klucel (hydroxypropylcellulose) (HPC) 95 % of control | dose: 400.0 mg/kg/injection, schedule: Q04DX003 (ip), vehicle: Klucel (hydroxypropylcellulose) (HPC) 92 % of control

C[n+]1cccc(C(=O)O)c1
inactive: dose: 50.0 mg/kg/injection, schedule: Q01DX001 (ip), vehicle: carboxymethylcellulose (CMC) 95 % of control | dose: 100.0 mg/kg/injection, schedule: Q01DX001 (ip), vehicle: carboxymethylcellulose (CMC) 95 % of control | dose: 200.0 mg/kg/injection, schedule: Q01DX001 (ip), vehicle: carboxymethylcellulose (CMC) 98 % of control

O=C(O)c1cc(Cl)cc(I)c1Br
inactive: dose: 75.0 mg/kg/injection, schedule: Q04DX002 (ip), vehicle: Klucel (hydroxypropylcellulose) (HPC) 100 % of control | [4] 94 % of control | dose: 150.0 mg/kg/injection, schedule: Q04DX002 (ip), vehicle: Klucel (hydroxypropylcellulose) (HPC) 96 % of control | [5] 105 % of control | dose: 300.0 mg/kg/injection, schedule: Q04DX002 (ip), vehicle: Klucel (hydroxypropylcellulose) (HPC) 100 % of control | [6] 105 % of control

COc1ccc(Cl)cc1NS(=O)(=O)c1ccc(Cl)cc1[N+](=O)[O-]
inactive: [10] 96 % of control | [11] 94 % of control | dose: 400.0 mg/kg/injection, schedule: Q01DX009 (ip), vehicle: saline 100 % of control

CCOC(=O)C12CCC(CC1)C(C(=O)O)C2C(=O)O (centres undefined)
inactive: dose: 75.0 mg/kg/injection, schedule: Q04DX002 (ip), vehicle: saline with Tween-80 99 % of control | dose: 150.0 mg/kg/injection, schedule: Q04DX002 (ip), vehicle: saline with Tween-80 89 % of control | dose: 300.0 mg/kg/injection, schedule: Q04DX002 (ip), vehicle: saline with Tween-80 92 % of control

CCOC(=S)SCC#CCSC(=S)OCC
inactive: dose: 100.0 mg/kg/injection, schedule: Q04DX002 (sc), vehicle: olive oil, sesame oil, peanut oil 104 % of control | dose: 200.0 mg/kg/injection, schedule: Q04DX002 (sc), vehicle: olive oil, sesame oil, peanut oil 114 % of control | dose: 400.0 mg/kg/injection, schedule: Q04DX002 (sc), vehicle: olive oil, sesame oil, peanut oil 96 % of control

Cc1ccc(C(C)C)c(OCC(O)CN2CC=CCC2)c1 (centres undefined)
inactive: dose: 25.0 mg/kg/injection, schedule: Q04DX003 (ip), vehicle: saline 100 % of control | dose: 50.0 mg/kg/injection, schedule: Q04DX003 (ip), vehicle: saline 112 % of control | dose: 100.0 mg/kg/injection, schedule: Q04DX003 (ip), vehicle: saline 99 % of control and 109 % of control
